Laboratory results from US10189836B2, “Therapeutic compounds, compositions and methods of use thereof” (Genentech, Inc., priority 2015, dated 2019).

Tests used:
[1] = target: isolated recombinant JAK2 kinase domain (Homo sapiens (Human), UniProt O60674); experiment: JAK2 enzyme assay (Caliper LabChip, Ki); format: biochemical; settings: isolated recombinant JAK2 kinase domain, 0.2 nM enzyme, ATP 25 μM
[2] = target: isolated recombinant JAK1 kinase domain (Homo sapiens (Human), UniProt P23458); experiment: JAK1 enzyme assay (Caliper LabChip, Ki); format: biochemical; settings: isolated recombinant JAK1 kinase domain, 1.5 nM enzyme, ATP 25 μM
Chain of isolated recombinant JAK1 kinase domain (P23458 875-1153): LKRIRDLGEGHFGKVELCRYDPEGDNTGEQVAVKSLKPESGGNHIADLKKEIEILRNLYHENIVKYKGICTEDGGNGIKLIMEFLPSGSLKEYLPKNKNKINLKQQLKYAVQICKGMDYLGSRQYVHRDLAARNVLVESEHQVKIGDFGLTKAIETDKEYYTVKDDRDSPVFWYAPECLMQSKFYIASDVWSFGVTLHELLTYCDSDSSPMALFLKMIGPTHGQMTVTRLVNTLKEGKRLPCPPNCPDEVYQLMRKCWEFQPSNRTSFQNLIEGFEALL

Chain of isolated recombinant JAK2 kinase domain (O60674 849-1124): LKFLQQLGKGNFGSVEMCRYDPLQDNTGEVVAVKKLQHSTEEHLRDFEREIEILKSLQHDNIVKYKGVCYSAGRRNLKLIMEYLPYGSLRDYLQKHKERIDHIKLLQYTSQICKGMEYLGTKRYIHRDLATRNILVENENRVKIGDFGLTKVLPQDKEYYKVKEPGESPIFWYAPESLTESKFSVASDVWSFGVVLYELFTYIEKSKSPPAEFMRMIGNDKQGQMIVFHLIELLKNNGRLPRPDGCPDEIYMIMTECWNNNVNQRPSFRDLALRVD

| Compound | Ki [1] [nM] | Ki [2] [nM] |
| --- | --- | --- |
| CN1CCN(C(=O)Cn2cc(Nc3nc4c(N5CC6CCC(C5)N6C(=O)CC(N)C(F)(F)F)cccn4n3)cn2)CC1 (stereo not shown) [Example 102, 3-amino-4,4,4-trifluoro-1-[3-[2-[[1-[2-(4-methylpiperazin-1-yl)-2-oxo-ethyl]pyrazol-4-yl]amino]-[1,2,4]triazolo[1,5-a]pyridin-8-yl]-3,8-diazabicyclo[3.2.1]octan-8-yl]butan-1-one] | 7.9 | 3.4 |
| CC(C(=O)N1CCN(C)CC1)n1cc(Nc2nc3c(N4CC5CCC(C4)N5C(=O)CCC(F)(F)F)cccn3n2)cn1 (stereo not shown) [Example 103, 4,4,4-trifluoro-1-[3-[2-[[1-[1-methyl-2-(4-methylpiperazin-1-yl)-2-oxo-ethyl]pyrazol-4-yl]amino]-[1,2,4]triazolo[1,5-a]pyridin-8-yl]-3,8-diazabicyclo[3.2.1]octan-8-yl]butan-1-one] | 1.7 | 1.5 |
| CC(C(=O)N1CCN(C)CC1)n1cc(Nc2nc3c(N4CC5CCC(C4)N5C(=O)CCC(F)(F)F)cccn3n2)cn1 (stereo not shown) [Example 104, 4,4,4-trifluoro-1-[3-[2-[[1-[1-methyl-2-(4-methylpiperazin-1-yl)-2-oxo-ethyl]pyrazol-4-yl]amino]-[1,2,4]triazolo[1,5-a]pyridin-8-yl]-3,8-diazabicyclo[3.2.1]octan-8-yl]butan-1-one] | 0.8 | 1.7 |
| CC(C(=O)N1CCN(C)CC1)n1cc(Nc2nc3c(N4CC5CCCC(C4)N5C(=O)CCC(F)(F)F)cccn3n2)cn1 (stereo not shown) [Example 105, 4,4,4-trifluoro-1-[3-[2-[[1-[1-methyl-2-(4-methylpiperazin-1-yl)-2-oxo-ethyl]pyrazol-4-yl]amino]-[1,2,4]triazolo[1,5-a]pyridin-8-yl]-3,9-diazabicyclo[3.3.1]nonan-9-yl]butan-1-one] | 0.8 | 1 |
| CC(C(=O)N1CCN(C)CC1)n1cc(Nc2nc3c(N4CC5CCCC(C4)N5C(=O)CCC(F)(F)F)cccn3n2)cn1 (stereo not shown) [Example 106, 4,4,4-trifluoro-1-[3-[2-[[1-[1-methyl-2-(4-methylpiperazin-1-yl)-2-oxo-ethyl]pyrazol-4-yl]amino]-[1,2,4]triazolo[1,5-a]pyridin-8-yl]-3,9-diazabicyclo[3.3.1]nonan-9-yl]butan-1-one] | 0.7 | 1.6 |
| CSc1ccc(S(=O)(=O)N2C3CCC2CN(c2cccn4nc(Nc5cnn(CC(=O)N6CCN(C)CC6)c5)nc24)C3)cc1 [Example 107, 1-(4-methylpiperazin-1-yl)-2-[4-[[8-[8-(4-methylsulfanylphenyl)-sulfonyl-3,8-diazabicyclo[3.2.1]octan-3-yl]-[1,2,4]triazolo[1,5-a]pyridin-2-yl]amino]pyrazol-1-yl]ethanone] | 0.8 | 0.4 |
| CN1CCN(C(=O)Cn2cc(Nc3nc4c(N5CC6CCC(C5)N6S(=O)(=O)Cc5ccccc5)cccn4n3)cn2)CC1 [Example 108, 2-[4-[[8-(8-benzylsulfonyl-3,8-diazabicyclo[3.2.1]octan-3-yl)-[1,2,4]triazolo[1,5-a]pyridin-2-yl]amino]pyrazol-1-yl]-1-(4-methylpiperazin-1-yl)ethanone] | 2.7 | 1 |
| CN1CCN(C(=O)Cn2cc(Nc3nc4c(N5CC6CCC(C5)N6CC5(CS(C)(=O)=O)CC5)cccn4n3)cn2)CC1 [Example 109, 1-(4-methylpiperazin-1-yl)-2-[4-[[8-[8-([1-(methylsulfonylmethyl)cyclopropyl]methyl]-3,8-diazabicyclo[3.2.1]octan-3-yl]-[1,2,4]triazolo[1,5-a]pyridin-2-yl]amino]pyrazol-1-yl]ethanone] | 7 | 4.8 |
| CN1CCN(C(=O)Cn2cc(Nc3nc4c(N5CC6CCC(C5)N6C(=O)NCC(F)(F)F)cccn4n3)cn2)CC1 [Example 110, 3-[2-[[1-[2-(4-methylpiperazin-1-yl)-2-oxo-ethyl]pyrazol-4-yl]amino]-[1,2,4]triazolo[1,5-a]pyridin-8-yl]-N-(2,2,2-trifluoroethyl)-3,8-diazabicyclo[3.2.1]octane-8-carboxamide] | 3.4 | 0.9 |
| CN1CCN(C(=O)Cn2cc(Nc3nc4c(N5CC6CCC(C5)N6S(=O)(=O)c5ccccc5Cl)cccn4n3)cn2)CC1 [Example 111, 2-[4-[[8-[8-(2-chlorophenyl)sulfonyl-3,8-diazabicyclo[3.2.1]octan-3-yl]-[1,2,4]triazolo[1,5-a]pyridin-2-yl]amino]pyrazol-1-yl]-1-(4-methylpiperazin-1-yl)ethanone] | 0.5 | 0.5 |
| CN1CCN(C(=O)Cn2cc(Nc3nc4c(N5CC6CCC(C5)N6S(=O)(=O)c5cccs5)cccn4n3)cn2)CC1 [Example 112, 1-(4-methylpiperazin-1-yl)-2-[4-[[8-[8-(2-thienylsulfonyl)-3,8-diazabicyclo[3.2.1]octan-3-yl]-[1,2,4]triazolo[1,5-a]pyridin-2-yl]amino]pyrazol-1-yl]ethanone] | 0.7 | 0.5 |
| CN1CCN(C(=O)Cn2cc(Nc3nc4c(N5CC6CCC(C5)N6c5ccc(Cl)cc5)cccn4n3)cn2)CC1 [Example 113, 2-[4-[[8-[8-(4-chlorophenyl)-3,8-diazabicyclo[3.2.1]octan-3-yl]-[1,2,4]triazolo[1,5-a]pyridin-2-yl]amino]pyrazol-1-yl]-1-(4-methylpiperazin-1-yl)ethanone] | 0.3 | 0.2 |
| CN1CCN(C(=O)Cn2cc(Nc3nc4c(N5CC6CCC(C5)N6C(=O)c5ccccc5Cl)cccn4n3)cn2)CC1 [Example 114] | 4.8 | 1.7 |
| CSc1ccccc1C(=O)N1C2CCC1CN(c1cccn3nc(Nc4cnn(CC(=O)N5CCN(C)CC5)c4)nc13)C2 [Example 115] | 2.1 | 1 |
| CN1CCN(C(=O)Cn2cc(Nc3nc4c(N5CC6CCC(C5)N6C(=O)C5(C#N)CCC5)cccn4n3)cn2)CC1 [Example 116, 1-[3-[2-[[1-[2-(4-methylpiperazin-1-yl)-2-oxo-ethyl]pyrazol-4-yl]amino]-[1,2,4]triazolo[1,5-a]pyridin-8-yl]-3,8-diazabicyclo[3.2.1]octane-8-carbonyl]cyclobutane-carbonitrile] | 3.5 | 2.5 |
| CCc1cnn([C@@]2(CC#N)[C@@H]3CC[C@H]2CN(c2cccn4nc(Nc5cnn(CC(=O)N6CCN(C)CC6)c5)nc24)C3)c1 [Example 117, 2-[(1R,5S)-8-(4-ethylpyrazol-1-yl)-3-[2-[[1-[2-(4-methylpiperazin-1-yl)-2-oxo-ethyl]pyrazol-4-yl]amino]-[1,2,4]triazolo[1,5-a]pyridin-8-yl]-3-azabicyclo[3.2.1]octan-8-yl]acetonitrile] | 24.2 | 18.3 |
| CN1CCN(C(=O)Cn2cc(Nc3nc4c(N5CC6CCC(C5)C6=CC#N)cccn4n3)cn2)CC1 [Example 118, 2-[3-[2-[[1-[2-(4-methylpiperazin-1-yl)-2-oxo-ethyl]pyrazol-4-yl]amino]-[1,2,4]triazolo[1,5-a]pyridin-8-yl]-3-azabicyclo[3.2.1]octan-8-ylidene]acetonitrile] | 1.5 | 0.5 |
| N#CC1(CNC2CCN(C(=O)Cn3cc(Nc4nc5c(N6CC7CCC(C6)N7C(=O)N6CC(C(F)(F)F)C6)cccn5n4)cn3)CC2)CC1 [Example 119, 1-[[[1-[2-[4-[[8-[8-[3-(trifluoromethyl)azetidine-1-carbonyl]-3,8-diazabicyclo[3.2.1]octan-3-yl]-[1,2,4]triazolo[1,5-a]pyridin-2-yl]amino]pyrazol-1-yl]acetyl]-4-piperidyl]amino]methyl] cyclopropanecarbonitrile] | 0.8 | 0.8 |
| CC(F)(F)CNC1CCN(C(=O)Cn2cc(Nc3nc4c(N5CC6CCC(C5)N6C(=O)N5CC(C(F)(F)F)C5)cccn4n3)cn2)CC1 [Example 120, 1-[4-(2,2-difluoropropylamino)-1-piperidyl]-2-[4-[[8-[8-[3-(trifluoromethyl)azetidine-1-carbonyl]-3,8-diazabicyclo[3.2.1]octan-3-yl]-[1,2,4]triazolo[1,5-a]pyridin-2-yl]amino]pyrazol-1-yl]ethanone] | 0.7 | 0.6 |
| O=C(Cn1cc(Nc2nc3c(N4CC5CCC(C4)N5C(=O)N4CC(C(F)(F)F)C4)cccn3n2)cn1)N1CCC(CN2CCOCC2)CC1 [Example 121, 1-[4-(morpholinomethyl)-1-piperidyl]-2-[4-[[8-[8-[3-(trifluoromethyl)azetidine-1-carbonyl]-3,8-diazabicyclo[3.2.1]octan-3-yl]-[1,2,4]triazolo[1,5-a]pyridin-2-yl]amino]pyrazol-1-yl]ethanone] | 0.7 | 0.7 |
| CN1CCN(C(=O)Cn2cc(Nc3nc4c(N5CC6CCCC(C5)N6C(=O)N5CC(C(F)(F)F)C5)cccn4n3)cn2)CC1 [Example 122, 1-(4-methylpiperazin-1-yl)-2-[4-[[8-[9-[3-(trifluoromethyl)azetidine-1-carbonyl]-3,9-diazabicyclo[3.3.1]nonan-3-yl]-[1,2,4]triazolo[1,5-a]pyridin-2-yl]amino]pyrazol-1-yl]ethanone] | 0.3 | 0.4 |
| CC(C(=O)N1CCN(C)CC1)n1cc(Nc2nc3c(N4CC5CCC(C4)N5C(=O)C4CC(C(F)(F)F)C4)cccn3n2)cn1 (stereo not shown) [Example 123, 1-(4-methylpiperazin-1-yl)-2-[4-[[8-[8-(3-(trifluoromethyl)-cyclobutanecarbonyl]-3,8-diazabicyclo[3.2.1]octan-3-yl]-[1,2,4]triazolo[1,5-a]pyridin-2-yl]amino]pyrazol-1-yl]propan-1-one] | 0.5 | 0.5 |
| CC(C(=O)N1CCN(C)CC1)n1cc(Nc2nc3c(N4CC5CCC(C4)N5C(=O)C4CC(C(F)(F)F)C4)cccn3n2)cn1 (stereo not shown) [Example 124, 1-(4-methylpiperazin-1-yl)-2-[4-[[8-[8-(3-(trifluoromethyl)-cyclobutanecarbonyl]-3,8-diazabicyclo[3.2.1]octan-3-yl]-[1,2,4]triazolo[1,5-a]pyridin-2-yl]amino]pyrazol-1-yl]propan-1-one] | 3.7 | 1.9 |
